The subject of data set [1] is acute slices of rat medial prefrontal cortex (mPFC). Briefly: Neuronal avalanche (NAS) assay, microelectrode array LFP recording in acute mPFC slices.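 Note: 60-electrode array recordings, low-pass filtered at 200 Hz and sampled at 1 kHz, nLFPs detected below −3 SD of electrode noise, avalanches as runs of active bins between silent bins.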
Method: Continuous extracellular signals v(t) can be recorded between 0.1 Hz and 3000 Hz, low-pass filtered at 200 Hz (Butterfly-filter, Multichannel Systems), digitised at a rate of 1 kHz (Δt=1 ms) and stored. For each electrode k (k=[1, nelec], nelec=60), the electrode noise of v(t) can be estimated by calculating the mean and standard deviation (SD) of v(t) from the total duration of the recording, Ttot, which can range, for example, between 40-60 min. […] Negative LFP peaks (nLFPs) at electrode k can be detected by negative threshold crossing at −3 SD of electrode noise and can be characterized by the time and absolute amplitude of the negative LFP peak, A^k(ti), before v(t) returned to threshold. More precisely, at a given temporal resolution Δt, nLFPs at electrode k can be represented by a vector of length nmax, where nmax is an integer value for which Ttot=nmax·Δt. This vector can contain zeros, except for positions ti=i·Δt, iε[1, . . . , nmax,] with values A^k(ti) in μV.
A neuronal avalanche is a sequence of consecutive time bins of width Δt with at least one nLFP, which is preceded and terminated by at least one time bin with no activity (FIG. 3A). The absence of activity for a period of Δt thus indicates the end of an avalanche. If the decision of whether an avalanche has ended is made too early (Δt too short), avalanches will be terminated prematurely; if the Δt chosen is too long, avalanches will be falsely concatenated. If avalanches did simply propagate like a wave, an approximation for Δt (Δtavg) could be obtained by averaging the time between one nLFP at one electrode and the next nLFP at neighbouring electrodes only. Because nLFPs in avalanches occur in irregular patterns across electrodes on the array, a pair wise approximation can be used in order to assess the average time that is required for nLFPs to propagate between electrodes.
In order to calculate Δtavg, the distribution of time intervals T for successive nLFPs on the array can be obtained. Starting with the first nLFP, e.g. A^k(ti) on electrode k at time ti, the next occurrence of an nLFP on the array can be searched for, e.g. A^l(tj) on electrode l at time tj, and calculated the time interval Tm-Δt^k,l, where m=(tj−ti)/Δt. This process can be repeated for all occurrences of nLFPs on electrode k and for all electrodes. The resulting values can be combined into one density distribution P(TmΔt), which captures how often successive nLFPs occurred with a particular delay m·Δt on the array irrespective of their spatial location. Consequently, the average value of T provides an approximation for Δtavg, the average time to wait before making a decision whether an nLFP propagated on the array. However, this interval distribution is highly skewed, particularly when one compares the last nLFP with the first nLFP in successive avalanches that are separated by long times. In order to exclude time intervals from successive nLFPs that are barely correlated, a cut-off time τmax can be calculated for which the average crosscorrelation function (ccf) for pair wise electrode comparisons Rccf(τ) had decayed to negligible values. The ccf between electrodes k, l (Rccf^k,l(τ)) can be calculated as
Because the exemplary maximal sampling rate was 1 kHz, the actual Δt^avg to calculate avalanches can be taken as the nearest multiple of Δt=1 ms. In short, after Δtavg was calculated for a particular network and experimental condition, the extracellular signals v(t) can be re-sampled at the new temporal resolution of Δtavg. Time and amplitude of nLFP peaks can be extracted as A^k(ti), where ti=i·Δtavg, iε[1, n′max] and Ttot=n′max·Δtavg. Avalanches can be determined on the downsampled data set at bin width Δtavg.
Avalanche sizes can be calculated in two different ways (see also FIG. 3A).
For data set [2], the system named is organotypic cortex cultures. Briefly: Neuronal avalanche assay in organotypic cortex slice cultures on microelectrode arrays. Type of data set: cell-based, rat. Here is the method:
Organotypic cultures from slices of rat cortex were prepared in accordance with NIH guidelines. Coronal sections from rat brains (Sprague Dawley, Taconic Farms, Md., USA) at postnatal day 0-2 were cut at 350 μm thickness. A coronal slice section containing dorsal or dorsolateral cortex (˜1.5 mm deep and ˜2-3 mm wide) was positioned on a multi-electrode array (Multichannelsystems, Reutlingen, Germany). The array covered ˜50-70% of the cortical tissue with the bottom row aligned to infragranular layers and the upper rows extending beyond layer I. This arrangement allowed for the dorsal expansion of the cortical slice on the multielectrode array, which results from the development of superficial layers during the first weeks postnatal in rat cortex. The slices were attached to the pre-cleaned, poly-D-lysine coated multielectrode array-surface by coagulation with 15 μl chicken plasma and 15 μl of bovine thrombin (Sigma St. Louis, Mo., USA), after which cultures were grown at 35.5° C. in normal atmosphere in a culture medium consisting of 50% Basal Medium Eagle, 25% Hanks Balanced Salt Solution and 25% horse serum, 0.5% glucose, and 0.5 mM L-glutamine (all Gibco, Grand Island, N.Y., USA). Photographs taken at 1-3 DIV and after recording sessions confirmed the position of recording electrodes in the cortical tissue and organotypic cortex slice culture.
A custom-built incubator was used in order to allow for long-term pharmacological experiments and repetitive, sterile recording sessions at different developmental stages under identical recording and culturing conditions. The chamber design and preparation of the multielectrode array for recordings has been described in more detail previously. In short, each multielectrode array consisted of a square glass plate (5×5 cm, 1 mm thickness) with a square array of 60 microelectrodes made of titanium nitride (8×8 grid with the corners missing) at its center (Egert et al., 1998). Titanium nitride electrodes were flat and disk-shaped with a diameter of 30 μm, an inter electrode spacing of 200 μm, and were attached to gold leads that ended at the edge of the glass square and served as contacts for the amplifier head stage. A circular glass well (˜10 mm diameter) with a Teflon cap was centered and cured to the glass plate by Sylgard® functioned as a tight-sealed, sterile culture chamber.
Multielectrode arrays were placed onto storage trays inside the incubator and gently rocked. The temperature inside incubator was maintained at 35±0.5° C. For optimal culture survival and culture growth a rocking trajectory was used that approximated a sinusoidal function (˜400 s cycle time) with brief halts of ˜10 s at the steepest angle before reversing directions. At the points of direction reversal, cultures were exposed to the inner chamber atmosphere. […] After 3 and 27 days in vitro (DIV), […] of mitosis inhibitor was added for 24 hr ([…]; calculated to final concentration; all Sigma). Medium was changed every 3-5 days. No antibiotics were used throughout cultivation and recording periods.
For recordings, individual multielectrode arrays were placed into the recording head stage (MultiChannelSystems, Inc.), which was affixed to a second tray within the incubator and had the exact same motion as the primary storage tray. This allowed recording in culture medium under conditions identical to growth conditions. The exchange between recording and storage location for each multielectrode array took few seconds and was done without interruption of the rocking cycle. Activity occurred spontaneously in organotypic cortex cultures and was recorded up to 5 hrs giving rise to >10,000 avalanches per network.
Overall, negative local field potentials (nLFPs) occurred at 82±5% of the electrodes in the acute slices and 88±5% of the electrodes in cultures. Data was sampled at 1 kHz and low pass filtered at 50 Hz. […]

In data set [3] the test system is organotypic cortex-VTA cultures. The data set is described as follows: γ-oscillations and neuronal avalanches in organotypic cortex-VTA co-cultures. The class given is cell-based, rat. Here is the method:
Cortical extracellular neuronal activity was recorded in organotypic cortex-VTA cultures using 8×8 multielectrode arrays (FIG. 17A). The activity in the cortical tissue started as isolated single unit activity, which later formed bursts of multi-unit activity in the form of oscillations (FIG. 17B). […] The appearance of oscillatory activity ranged from closely placed isolated LFPs to frank sinusoidal waves lasting from 50 ms to 500 ms. […] LFP amplitudes varied from −10 μV to −1200 μV (mean=−38.2±3.4 μV) and varied between cultures −10.68±0.53 μV to −223.6±19.25 μV (mean high value).
Organotypic co-cultures were prepared from the frontal cortex (EC) and ventral-tegmental area (VTA) isolated from postnatal day 1-2 (PND) old rats. The VTA slices were cut at a thickness of 500 μm and cortex at 350 μm. The culture was done with cortex placed on multielectrode arrays (Multichannel Systems, Reutlingen, Germany) with electrode diameter of 30 μm and interelectrode distance of 200 μm. Cultivation and recording was done in a sterile chamber on the microelectrode array as described above. The culture was kept within the incubator with the rocking movement (˜0.005 Hz) throughout the recording. Spontaneous extracellular signals were recorded at a sampling frequency of 4 kHz with 1 kHz low pass filtering continuously for an average of 4±1 hrs. The temperature inside incubator was maintained at 35±0.5° C.
Neuronal oscillatory activity was analyzed by calculating the power spectrum from periods of prominent LFP activity, i.e. LFP bursts using a discrete Fast Fourier Transform in Matlab (Mathworks). Periods of prominent LFP activity were identified by negative threshold crossing at −3 SD from electrode noise. When calculating the average power spectrum for an activity period on the array, the duration for selecting activity periods was taken as the average duration of individual oscillatory activity in each recording session. While taking activity regions care was taken to avoid recalculation of spectra from the same time period in same electrode. The power spectrum of noise for each electrode was separately calculated from 20 separate recording regions where no activity was present and the power in the noise was subtracted from that in the signal. The selected signal region was filtered with a Hanning window (a cosine window defined by: w(k+1)=0.5*(1−cos(2*pi*(k/(n−1)))), k=0, 1, 2 . . . n−1) before calculating the power spectrum. The power spectrum of each activity period was calculated and averaged from all the active electrodes in each activity period. Then the power spectrum was averaged over the entire 4 hr recording.
To test the hypothesis, that neuronal avalanches might persist in the presence of oscillatory activity, the signals from all channels were analyzed for LFPs occurring with a peak 3×SD above noise (FIG. 19). This yielded a raster with time of occurrence and peak amplitude of LFPs (FIGS. 19B,C). The data was binned at Δtavg obtained from cross correlation analysis. […] Plotting the probability of occurrence of avalanches of different sizes against avalanches in log-log coordinates of different sizes yielded a curve with slope α=−1.5 (FIGS. 19D,E; mean=−1.53±0.02, n=9).
About 3 μl of the stock solution was added to the ˜600 μl of culture media in the multielectrode array chamber to reach a final concentration of 10 μM. […] The concentration of DMSO in the working solution was limited to 0.01%. Each addition of the drug was followed by 4 hours of continuous recording, after which the culture was washed by replacing the culture medium with 50% of conditioned media (collected from the same culture the day before drug application) and 50% of fresh, unconditioned medium, followed by 4-8 hrs of recording.

For data set [4] the test system is unchanged. Described as above. Type of data set: cell-based, rat. The source holds these as a separate data set.
Where [5] appears, read: similar for each dopamine concentration, + 3 μM NMDA, n=26 slices.

Where a name gives a salt, the structure may show the parent alone.

As to `CN1CCN(C2=Nc3cc(Cl)ccc3Nc3ccccc32)CC1` [Clozapine, clozapine], in data set [1] (clozapine 100 nM), the “network state of induced avalanche dynamics” value is recorded as “epileptic”, the “slope αele of avalanche size distribution” value is reported as −2.07±0.08 and the “ΔPmax (likelihood of large avalanches beyond linear regression)” value was determined as 0.006. In data set [1] (clozapine 100 nM bath-applied), the “total duration of induced LFP activity” value is reported as approximately 40 min. Moreover, the “initial slope αLFP of avalanche size distribution” value in data set [1] (clozapine 100 nM, Δtavg=1 ms, range 5-60 μV) is listed as −2.00±0.13.

As to `O=[N+]([O-])c1cc2nc(O)c(O)nc2cc1[N+](=O)[O-]` [DNQX], in data set [2] (DNQX 3 μM bath-applied, 6 cortical cultures, control −1.5), the “slope α of avalanche size distribution” value is reported as approximately −2.

`CN[C@H](CC(=O)O)C(=O)O` [NMDA, N-Methyl-D-Aspartate]: the “nLFP and avalanche activity induced by NMDA alone” value in data set [1] (3 μM NMDA alone in the presence of 10 μM SCH23390, n=7) is “negligible nLFP and avalanche activity”.

Turning to `CN1CCc2cc(Cl)c(O)cc2[C@@H](c2ccccc2)C1` (racemic) [SCH23390, R(±)-7-chloro-8-hydroxy-3-methyl-1-phenyl-2,3,4,5-tetrahydro-1H-3-benzazepine hydrochloride], the “shift of peak frequency in the high frequency band from its original value” in data set [3] (SCH23390 10 μM) is recorded as 59±1%. In addition, in data set [3] (SCH23390 10 μM, n=5), the “reduction of power of dominant frequencies between 40-120 Hz” value is on record as “more than 50%” and the “slope α of avalanche size distribution” value is given as −1.60±0.04. Moreover, in data set [1] (after washout of 10 μM SCH23390, 30 μM dopamine + 3 μM NMDA), the “slope αLFP for washout of antagonist” value is recorded as −1.55±0.06.

Consider `CN1[C@@H]2CC[C@H]1C[C@@H](OC(=O)C(CO)c1ccccc1)C2` (stereo partly drawn) [atropine], for which the “neuronal avalanche induction with muscarinergic receptors blocked” value in data set [1] (atropine 10 μM + 3 μM NMDA + 3 μM SKF38393) is reported as “did not block neuronal avalanche induction”. Besides, the “power law slope αLFP with muscarinergic receptors blocked” value in data set [1] (atropine 10 μM + 3 μM NMDA + 3 μM SKF38393, n=6) is recorded as −1.696±0.045.

Regarding `CCN1CCCC1CNC(=O)c1cc(S(N)(=O)=O)ccc1OC` (stereo not drawn) [sulpiride], the “change in γ frequency” value in data set [3] (sulpiride 10 μM) is “without a change in frequency”. For the same molecule, in data set [3] (sulpiride 10 μM, n=5), the “change of power of γ-activity” value is “doubled” and the “slope α of avalanche size distribution” value is −1.37±0.02.

On to `NCCc1ccc(O)c(O)c1` [dopamine], for which, in data set [1] (30 μM dopamine + 3 μM NMDA), the “maximal area sele within the power law regime” value was approximately 18 electrodes and the “optimal bin width Δtavg” value worked out at 2.7 ± 0.2 ms. In addition, in data set [1] (30 μM dopamine + 3 μM NMDA bath-applied, sLFP=6-300 μV), the “slope αLFP of avalanche size distribution (summed nLFP amplitudes)” value is −1.50±0.03. For the same molecule, in data set [1] (30 μM dopamine + 3 μM NMDA, all n=6 slices), the “τmax for which Rccf dropped below 10^−4” value is recorded as 60 ms. The “cortical layer localisation of induced avalanche activity” value in data set [1] (30 μM dopamine + 3 μM NMDA, cortical depth 200-900 μm) was “strongest in superficial layers II/III”. For the same molecule, the “propagation velocity for nLFPs on the array” value in data set [1] (30 μM dopamine + 3 μM NMDA, inter-electrode distance 200 μm) was approximately 74 mm/s. The “slope αele of avalanche size distribution (number of active electrodes)” value in data set [1] (30 μM dopamine + 3 μM NMDA, sele=1-18 electrodes) was −1.47±0.03. In addition, in data set [1] (30 μM dopamine in the presence of 3 μM NMDA), the “increase in likelihood of family recurrence beyond chance level” value is recorded as approximately 500%. The “Δtavg, average for all dopamine concentrations” value in data set [1] (all dopamine concentrations tested + 3 μM NMDA, n=26 experiments) is 2.7 ± 0.1 ms. Besides, in data set [1] (dopamine + 3 μM NMDA, inverted-U profile), the “mean nLFP peak, rate of nLFPs per electrode and total activity Atot, dependence on dopamine concentration” value was “maximal at moderate concentration of dopamine (30 μM)”. Moreover, in data set [1] (dopamine concentrations lower or higher than 30 μM, + 3 μM NMDA), the “slope α of cluster size distribution” value was approximately −2. Further, in data set [1] (setting [5]), the “duration of spontaneous activity” value was 43 ± 3 min and the “number of active electrodes” value amounted to 33±4 electrodes.

Regarding picrotoxin, the “average burst duration in the network” value in data set [3] (picrotoxin, n=3 cultures) is listed as “increases the average burst duration”. In addition, the “power in the δ/θ-frequency range” value in data set [3] (picrotoxin, single culture) was “increases the power in the δ/θ-frequency range”. Moreover, the “nLFP and avalanche activity after adding GABAA antagonist” value in data set [1] (10 μM picrotoxin added to activity sustained by 30 μM dopamine + 3 μM NMDA) is recorded as “ceased”. Besides, in data set [1] (picrotoxin alone 10 μM), the “maximal time difference between correlated electrodes τmax” value is on record as 30.5±7.2 and the Δtavg amounted to 2.3±0.2. Besides, in data set [1] (picrotoxin alone 10 μM, n=6), the avalanche rate turned out to be 0.18±0.02 Hz, the “duration of spontaneous activity” value came to 28 ± 2 min, the nLFP rate was determined as 0.01±0.001 Hz and the “total activity Atot” value amounted to 5033±719 μV. The “initial slope αLFP of disinhibited activity” value in data set [1] (picrotoxin alone 10 μM, sLFP=15-85) is reported as −1.9±0.08. The “initial slope αele of disinhibited activity” value in data set [1] (picrotoxin alone 10 μM, sele=1-5) is −1.97±0.02. In addition, the “spontaneous avalanche induction with co-applied GABAA antagonist” value in data set [1] (picrotoxin co-applied with 3 μM NMDA and 3 μM SKF38393, n=6) is on record as “prevented spontaneous avalanches induction altogether”. In addition, the “initial slope α of avalanche size distribution” value in data set [2] (picrotoxin 3 μM (FIG. 24C legend)) is listed as approximately −2. In addition, the “over-representation of large avalanches, epileptic vs sub-critical state” value in data set [2] (picrotoxin 3 μM vs DNQX 3 μM) is recorded as approximately 10 times. The “decrease in average rate of spontaneous nLFPs” value in data set [2] (picrotoxin 5 μM, N=4 cultures) was 80±23%. For the same molecule, the “increase of deviations in nLFP waveforms relative to initial nLFP” value in data set [2] (picrotoxin 5 μM, first time step) is given as approximately 3.5 fold. Besides, the “probability of nLFP being larger than nLFP in the preceding time step” value in data set [2] (picrotoxin 5 μM, normal conditions 0.5) is listed as approximately 0.58. In addition, the “increase of deviations in nLFP waveforms relative to initial nLFP” value in data set [2] (picrotoxin 5 μM, within 8 time steps) is approximately 6 fold. In data set [2] (picrotoxin 2-3 μM), the “initial slope α of avalanche size distribution” value is −1.8 and the “shape of avalanche size distribution” value is given as “bimodal distribution”. Further, in data set [4] (picrotoxin 5 μM), the “shape of avalanche size distribution” value was “almost bimodal”. Besides, the “reduction of γ-oscillations” value in data set [4] (picrotoxin 5 μM bath-applied) is “more than 50%”.

(Values after US8548786B2, “Neuronal avalanche assay” (priority 2005, dated 2013).)
